Measurements from PMC9095528, “Spectrofluorimetric Approach for Quantification of Cyclizine in the Presence of its Toxic Impurities in Human Plasma; in silico Study and ADMET Calculations” (Journal of Fluorescence, 2022).

Tests used:
[1] = Pharmacokinetics of CYZ in human plasma after I.V administration (non-compartmental analysis); format: in vivo
Experimental: One mL of CYZ was intravenously injected into three human volunteers in good health and Using a calibrated heparinized tube, a 5 mL sample of human blood was drawn from each volunteer after 0.5, 1, 2, 4, 8 hrs. All the collected samples were centrifuged for 20 min at 4000 rpm. 1 mL of each sample was quantitatively poured into a centrifuge tube, and 1 mL acetonitrile was applied to precipitate plasma proteins, until centrifugation at 4000 rpm for 20 minutes. The clear plasma supernatant was transferred to Eppendorf tubes and held at […] until the rest of the procedure was completed.
Non-compartmental analysis (NCA) was used to measure pharmacokinetic parameters such as half-life, C max, T max, elimination rate constant, clearance, apparent volume of distribution, and area under the curve using Thermo Kinetica software (version 5.0) and PK solver software after taking human plasma samples from previously injected volunteers. In deciding the proper usage of the drug and in forecasting the impact of pharmacokinetic drug interactions, the results of pharmacokinetic research have been helpful.

[2] = Stability of CYZ in plasma (short-term room temperature and freeze-thaw); format: in vitro ADME, human; conditions: rat plasma
Experimental: To cover the anticipated sample treatment and storage environments during the processing of samples, the stability of CYZ in human plasma was investigated as short‐term stability at room temperature and freeze–thaw stability. In all stability tests, three replicates of three concentrations at low, medium, and high levels were treated and compared to recently prepared QC samples.

[3] = intravenous, I.V administration of Emetrex 50 mg

Elimination rate constant (K) ([1]; I.V administration of Emetrex 50 mg): 0.274 ± 0.10
Tmax ([1]; intravenous, 50 mg, after I.V injection): 2 h
AUC(0-inf) [1, 3]: 213 ± 7.21 µg·h/mL
AUC(0-t) [1, 3]: 22.3 ± 1.22 µg·h/mL
Cmax [1, 3]: 72.8 ± 1.56 ng/mL
half-life [1, 3]: 2.53 ± 0.43 h
Vd ([1]; intravenous, I.V administration of Emetrex 50 mg, read-out: Volume of distribution (Vd)): 0.695 ± 0.23 L
remaining at 6 h, 30 ng/mL ([2]; 30 ng/mL, room temperature for 6 h): 97 ± 1.13%
remaining at 30 ng/mL ([2]; 30 ng/mL, three freeze thaw cycle): 97.1 ± 1.32%
remaining at 6 h, 400 ng/mL ([2]; 400 ng/mL, room temperature for 6 h): 98.03 ± 0.98%
remaining at 400 ng/mL ([2]; 400 ng/mL, three freeze thaw cycle): 96.5 ± 0.97%
remaining at 6 h, 800 ng/mL ([2]; 800 ng/mL, room temperature for 6 h): 96.1 ± 1.88%
remaining at 800 ng/mL ([2]; 800 ng/mL, three freeze thaw cycle): 97.2 ± 1.76%
Structure (SMILES): CN1CCN(C(c2ccccc2)c2ccccc2)CC1 [CYZ, 1-benzhydryl-4-methylpiperazine]
